Among the data in patent EP2970215B1, “PYRROLIDINE DERIVATIVES, PHARMACEUTICAL COMPOSITIONS CONTAINING THEM, AND THEIR USE IN THERAPY” (AbbVie Deutschland GmbH & Co. KG, priority 2013, dated 2014) are Ki values, retold here.

This test concerns the target T1, human GlyT1c transporter (Homo sapiens, UniProt P48067).
T1 construct: expressed in transfected cells; host or cells: CHO cells (recombinant; line hGlyT1c_5_CHO is named for the uptake assay)
T1 sequence (P48067 1-706): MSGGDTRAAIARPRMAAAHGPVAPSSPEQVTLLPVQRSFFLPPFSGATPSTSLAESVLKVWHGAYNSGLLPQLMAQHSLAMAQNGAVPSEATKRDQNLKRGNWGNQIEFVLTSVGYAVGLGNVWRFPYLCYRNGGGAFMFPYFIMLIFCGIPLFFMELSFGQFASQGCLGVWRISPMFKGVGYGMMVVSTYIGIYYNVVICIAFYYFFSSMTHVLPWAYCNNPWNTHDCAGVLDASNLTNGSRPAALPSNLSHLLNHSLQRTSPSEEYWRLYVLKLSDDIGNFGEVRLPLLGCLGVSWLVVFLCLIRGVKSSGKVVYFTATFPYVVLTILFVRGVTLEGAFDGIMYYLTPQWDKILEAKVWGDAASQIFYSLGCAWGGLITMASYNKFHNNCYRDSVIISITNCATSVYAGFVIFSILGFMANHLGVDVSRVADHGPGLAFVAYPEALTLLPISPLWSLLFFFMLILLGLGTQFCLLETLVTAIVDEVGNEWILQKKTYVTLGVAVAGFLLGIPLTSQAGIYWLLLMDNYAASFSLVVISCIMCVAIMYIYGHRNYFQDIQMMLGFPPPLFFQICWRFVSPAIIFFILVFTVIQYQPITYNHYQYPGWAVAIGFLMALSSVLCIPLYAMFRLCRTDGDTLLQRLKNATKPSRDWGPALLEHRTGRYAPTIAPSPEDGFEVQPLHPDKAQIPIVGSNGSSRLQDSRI
The experiment in a line: Radioligand binding assay using recombinant CHO cell membranes expressing human GlyT1. The text has this: 2. Radioligand binding assays using recombinant CHO cell membranes expressing human GlyT1: […]

The mark [1] stands for this setting: radioligand binding to human GlyT1c transporter-expressing membranes.

One may read the Ki as the equilibrium dissociation constant of an inhibitor or competing ligand from its target. On to `Cn1cnc(S(=O)(=O)N2C[C@@H](Nc3cccc(F)c3)[C@H](c3ccccc3)C2)c1` (relative stereo) [Example 70, trans-N-(3-fluorophenyl)-1-[(1-methyl-1H-imidazol-4-yl)sulfonyl]-4-phenylpyrrolidin-3-amine], for which the Ki under setting [1] was not above 1000 nM.

For the molecule `Cn1cnc(S(=O)(=O)N2C[C@@H](Nc3cc(C#N)ccc3F)[C@H](c3ccccc3)C2)c1` (relative stereo) [Example 76, 4-fluoro-3-({trans-1-[(1-methyl-1H-imidazol-4-yl)sulfonyl]-4-phenylpyrrolidin-3-yl}amino)benzonitrile], the Ki under setting [1] is not above 10000 nM. The same measure, in the same setting: in the case of `Cn1cnc(S(=O)(=O)N2C[C@@H](NC(=O)C3(C(F)(F)F)CC3)[C@H](c3ccccn3)C2)c1` (relative stereo) [Example 374, N-[Trans-1-[(1-methyl-1H-imidazol-4-yl)sulfonyl]-4-(pyridin-2-yl)pyrrolidin-3-yl]-1-(trifluoromethyl)cyclopropanecarboxamide] it was not below 10000 nM; in that of `Cn1cnc(S(=O)(=O)N2C[C@H](NCC3CCOC3)[C@@H](c3ccccc3)C2)c1` (stereo partly drawn) [Example 447, (3R,4S)-1-[(1-methyl-1H-imidazol-4-yl)sulfonyl]-4-phenyl-N-(tetrahydrofuran-3-ylmethyl)pyrrolidin-3-amine], not above 10000 nM. In the case of `Cn1cc(S(=O)(=O)N2C[C@@H](Nc3cccc(OCC(F)(F)F)c3)[C@H](c3ccc(F)cc3)C2)nn1` (relative stereo) [Example 836, trans-4-(4-fluorophenyl)-1-[(1-methyl-1H-1,2,3-triazol-4-yl)sulfonyl]-N-[3-(2,2,2-trifluoroethoxy)phenyl]pyrrolidin-3-amine], the Ki (radioligand binding, recombinant CHO cell membranes expressing human GlyT1c) was not above 10 nM. With `Cn1cnc(S(=O)(=O)N2C[C@@H](C(=O)c3cc(F)cc(Cl)c3)[C@H](c3ccc(F)cc3)C2)c1` (relative stereo) [Example 361, (3-Chloro-5-fluorophenyl){trans-4-(4-fluorophenyl)-1-[(1-methyl-1H-imidazol-4-yl)sulfonyl]pyrrolidin-3-yl} methanone], the inhibitory constant (Ki) under setting [1] is not above 1000 nM.

As to `CS(=O)(=O)N1C[C@@H](NC(=O)c2cccc(C(F)(F)F)c2Cl)[C@H](c2cc(F)c(F)cc2F)C1` (relative stereo) [Example 4, 2-chloro-N-[trans-1-(methylsulfonyl)-4-(2,4,5-trifluorophenyl)pyrrolidin-3-yl]-3-(trifluoromethyl)benzamide], the Ki under setting [1] was not below 10000 nM. On the same count and under the same terms, then `Cn1cnc(S(=O)(=O)N2C[C@@H](OCc3ccc(S(C)(=O)=O)cc3)[C@H](c3ccc(F)cc3)C2)c1` (relative stereo) [Example 713, 4-{[trans-3-(4-fluorophenyl)-4-{[4-(methylsulfonyl)benzyl]oxy}pyrrolidin-1-yl]sulfonyl}-1-methyl-1H-imidazole], with more than 10000 nM; and `Cn1cnc(S(=O)(=O)N2C[C@H](Nc3ncc(F)cn3)[C@@H](c3ccccc3)C2)c1` [Example 424, 5-fluoro-N-{(3R,4S)-1-[(1-methyl-1H-imidazol-4-yl)sulfonyl]-4-phenylpyrrolidin-3-yl}pyrimidin-2-amine], with not above 1000 nM. Consider `Cn1cnc(S(=O)(=O)N2C[C@@H](NCc3ccc(C(F)(F)F)cc3)[C@H](c3ccc(F)cc3)C2)c1` (relative stereo) [Example 267, trans-4-(4-fluorophenyl)-1-[(1-methyl-1H-imidazol-4-yl)sulfonyl]-N-[4-(trifluoromethyl)benzyl]pyrrolidin-3-amine], for which, under setting [1], the Ki is not above 10 nM. In the case of `Cc1c(S(=O)(=O)N2CC(Nc3ccc(F)c(F)c3)C(c3ccccc3)C2)cnn1C` (centres unmarked) [Example 483, N-(3,4-difluorophenyl)-1-[(1,5-dimethyl-1H-pyrazol-4-yl)sulfonyl]-4-phenylpyrrolidin-3-amine], under setting [1], the Ki is not above 10000 nM. Take `Cn1cnc(S(=O)(=O)N2C[C@@H](NCc3cccc(C#N)c3)[C@H](c3ccc(F)cc3)C2)c1` (relative stereo) [Example 152, 3-[({trans-4-(4-fluorophenyl)-1-[(1-methyl-1H-imidazol-4-yl)sulfonyl]pyrrolidin-3-yl}amino)methyl]benzonitrile]: under setting [1], the Ki is not above 1000 nM. In the case of `Cn1cnc(S(=O)(=O)N2C[C@@H](Nc3cccc(Cl)c3)[C@H](c3cccc(F)c3)C2)c1` (relative stereo) [Example 188, trans-N-(3-chlorophenyl)-4-(3-fluorophenyl)-1-[(1-methyl-1H-imidazol-4-yl)sulfonyl]pyrrolidin-3-amine], the Ki under setting [1] is not above 100 nM.

With `Cn1cnc(S(=O)(=O)N2C[C@@H](C(=O)NCc3ccc(F)c(Cl)c3)[C@H](c3ccc(F)cc3)C2)c1` (relative stereo) [Example 642, Trans-N-(3-chloro-4-fluorobenzyl)-4-(4-fluorophenyl)-1-[(1-methyl-1H-imidazol-4-yl)sulfonyl]pyrrolidine-3-carboxamide], the Ki under setting [1] was not above 10 nM. Consider `Cn1cnc(S(=O)(=O)N2C[C@@H](COc3ccc(Cl)cc3Cl)[C@H](c3ccc(F)cc3)C2)c1` (relative stereo) [Example 246, 4-{[trans-3-[(2,4-dichlorophenoxy)methyl]-4-(4-fluorophenyl)pyrrolidin-1-yl]sulfonyl}-1-methyl-1H-imidazole], for which the Ki under setting [1] was not above 100 nM. With `Cn1cnc(S(=O)(=O)N2C[C@@H](NCc3ccc(C(F)(F)F)cc3Cl)[C@H](c3ccccn3)C2)c1` (relative stereo) [Example 320, trans-N-[2-chloro-4-(trifluoromethyl)benzyl]-1-[(1-methyl-1H-imidazol-4-yl)sulfonyl]-4-(pyridin-2-yl)pyrrolidin-3-amine], under setting [1], the Ki is not above 10 nM.

Regarding `Cn1cnc(S(=O)(=O)N2C[C@@H](C(=O)NCc3cc(C(F)(F)F)ccc3Cl)[C@H](c3ccc(F)cc3)C2)c1` (relative stereo) [Example 633, Trans-N-[2-chloro-5-(trifluoromethyl)benzyl]-4-(4-fluorophenyl)-1-[(1-methyl-1H-imidazol-4-yl)sulfonyl]pyrrolidine-3-carboxamide], the Ki under setting [1] was not above 1000 nM. Same read-out and setting: in the case of `Cn1cnc(S(=O)(=O)N2C[C@H](NCCC3CC3)[C@@H](c3ccccc3)C2)c1` [Example 545, (3R,4S)-N-(2-cyclopropylethyl)-1-[(1-methyl-1H-imidazol-4-yl)sulfonyl]-4-phenylpyrrolidin-3-amine] it was not above 1000 nM.

On to `O=S(=O)(c1ccc(C(F)(F)F)nc1)N1CC(Nc2ccc(F)c(F)c2)C(c2ccccc2)C1` (centres unmarked) [Example 500, N-(3,4-difluorophenyl)-4-phenyl-1-{[6-(trifluoromethyl)pyridin-3-yl]sulfonyl}pyrrolidin-3-amino], for which the Ki under setting [1] is not above 10000 nM.

Regarding `Cn1cnc(S(=O)(=O)N2C[C@@H]([C@@H]3CCCOC3)[C@H](Nc3ccc(Cl)c(C(F)(F)F)c3)C2)c1` (relative stereo) [Example 792, Trans-N-[4-chloro-3-(trifluoromethyl)phenyl]-1-[(1-methyl-1H-imidazol-4-yl)sulfonyl]-4-[(3S)-tetrahydro-2H-pyran-3-yl]pyrrolidin-3-amine], the Ki under setting [1] is not above 10000 nM. Still for that read-out and setting: in the case of `Cc1nn(C)c(Cl)c1S(=O)(=O)N1CC(Nc2ccc(F)c(F)c2)C(c2ccccc2)C1` (centres unmarked) [Example 486, 1-[(5-chloro-1,3-dimethyl-1H-pyrazol-4-yl)sulfonyl]-N-(3,4-difluorophenyl)-4-phenylpyrrolidin-3-amine] it was not above 10000 nM; in that of `Cn1cnc(S(=O)(=O)N2C[C@@H](Nc3ccc(F)c(OC(F)(F)F)c3)[C@H](c3ncccc3F)C2)c1` (relative stereo) [Example 768, Trans-4-(3-fluoropyridin-2-yl)-N-[4-fluoro-3-(trifluoromethoxy)phenyl]-1-[(1-methyl-1H-imidazol-4-yl)sulfonyl]pyrrolidin-3-amine], not above 100 nM; in that of `Cn1cnc(S(=O)(=O)N2C[C@@H](Nc3ccccc3)[C@H](c3ccccc3)C2)c1` (relative stereo) [Example 29, trans-1-[(1-methyl-1H-imidazol-4-yl)sulfonyl]-N,4-diphenylpyrrolidin-3-amine], not above 1000 nM. As for `Cn1cnc(S(=O)(=O)N2C[C@@H](Nc3cccc(C(F)(F)F)c3)[C@H](c3cccc(F)c3)C2)c1` (relative stereo) [Example 189, trans-4-(3-fluorophenyl)-1-[(1-methyl-1H-imidazol-4-yl)sulfonyl]-N-[3-(trifluoromethyl)phenyl]pyrrolidin-3-amine], under setting [1], the Ki was not above 100 nM.

For the molecule `Cn1cnc(S(=O)(=O)N2C[C@@H](CO)[C@H](c3ccc(F)cc3)C2)c1` (relative stereo) [Example 206, {Trans-4-(4-fluorophenyl)-1-[(1-methyl-1H-imidazol-4-yl)sulfonyl]pyrrolidin-3-yl}methanol], under setting [1], the Ki is not above 10000 nM. Still for that read-out and setting: in the case of `Cc1oncc1S(=O)(=O)N1CC(Nc2ccc(F)c(F)c2)C(c2ccccc2)C1` (centres unmarked) [Example 487, N-(3,4-difluorophenyl)-1-[(5-methyl-1,2-oxazol-4-yl)sulfonyl]-4-phenylpyrrolidin-3-amine] it was not above 10000 nM.
